Experimental findings from patent US8835643B2, “Molecules, compositions, and methods for light absorption” (Empire Technology Development LLC, priority 2012, dated 2014) are described below.

The nature of data set [1]: Molar absorptivity in CHCl3 (UV-Vis spectrophotometer). It is filed as physicochemical. The note with it: for κ (molar absorptivity): CHCl3; for λmax (λCHCl3): in CHCl3.
Method: The tests included observing the UVA-absorbing condition before and after light exposure and noting the molar absorption coefficient. […] The ultraviolet spectra of CHCl3 were measured using an UV-Vis spectrophotometer (U3010, Hitachi, Japan). All experiments were carried out at room temperature unless otherwise stated.
A short description of data set [2]: Critical wavelength method, evaluation as UVA protector. In kind it is physicochemical. The text has this: The term “critical wavelength method” denotes a method of measuring of the breadth of UVA protection using the “critical wavelength”. To obtain this value, the absorbance of the molecule or material is integrated (summed) from 290 nm across the UV wavelengths until the sum reaches 90% of the total absorbance of the sunscreen in the UV region of 290-400 nm. The wavelength where the summed absorbance reaches 90% of the total absorbance is the “critical wavelength”. The critical wavelength can be defined by the following equation: […]
The critical wavelength method was then employed for evaluation of the molecule CDBA as a UVA protector. The results are shown in FIGS. 5A-5C, which are graphs depicting the data using the Critical Wavelength method to evaluate CDBA as a UVA protector. […] Its 90% value was 124.030. […] Given this, the λc was determined to be between 389-390 nm. Furthermore, the results can be summarized as follows: • After 6 minutes of irradiation of UVA radiation (356 nm or 357 nm), 100% of the composition was isomeric. • After 8 minutes of irradiation of visible light radiation (442 nm or 443 nm), 99% of the molecules were isomeric. • After 3 hours of daylight irradiation, more than 90% of the molecules were isomeric, trans.

Data set [3] can be described thus: Photoisomerization tests under UV, visible and natural light. It is filed as physicochemical. The note with it: for time of UV light irradiation to convert trans into cis form / time of visible light irradiation to reach the photostationary state of trans form: 400 W Hg lamp; for time of UV light irradiation to convert trans into cis form: 275-400 nm filter, room temperature; for time of visible light irradiation to reach the photostationary state of trans form: filter >400 nm; for time of natural light irradiation to reach the photostationary state of trans form: fluorescent lamps, about 500 lx. As to the method: Photoisomerization tests were carried out on compounds PyB (Formula XIV) and iQB (Formula XV), which were synthesized and characterized by MS, IR, ^1H NMR spectra.
The tests included observing the UVA-absorbing condition before and after light exposure and noting the molar absorption coefficient. The test also included determining the photo isomerization conditions under illumination of UVA, visible light and daylight. The compounds were irradiated with a 400 W high-pressure Hg lamp (LCE-9, Zhengzhou, China). A bandpass filter (λT=275˜400 nm) was used for UV light and a bandpass filter (λT>400 nm) was used for visible light. The light distance was 20 cm. For natural light irradiation, samples were irradiated with fluorescent lamps (21 W×2, luminous intensity about 500 lx), and the light distance was 120 cm. The ultraviolet spectra of CHCl3 were measured using an UV-Vis spectrophotometer (U3010, Hitachi, Japan). All experiments were carried out at room temperature unless otherwise stated.
It was estimated from the spectral change that trans-PyB and iQB were converted into the cis-PyB or iQB after 6 or 8 min (respectively) of UV light irradiation (FIGS. 3A and 4A); it took 8 min of visible light irradiation to reach the photostationary state of trans-PyB or iQB (FIGS. 3B and 4B) and 3.0 h of natural light irradiation to reach the photostationary state of trans-PyB or iQB (FIGS. 3C and 4C).

Method for back of the rats: Phototoxicity of various azo-compounds was examined.
The UV source for the in vivo testing involved a 400 W high-pressure mercury lamp (LCE-9, Zhengzhou, China) with a filter transmitting the wavelength between 320-380 nm. Four test sites (4 cm^2) were selected on the back of the rats. The sites were located between the breast and scapulae and lateral to the midline. The test product was applied at the amount of 20 ul/cm^2 (0.06 mg CDBA) and spread uniformly over one test site using a finger cot. The product was allowed to dry for 15 min before starting the UV exposure. On each test site, four squares (1 cm×1 cm) were defined, on an unprotected skin area of the rat dorsal and on a sunscreen-protected area. The skin was kept at a distance of 15 cm from the light source and the time of illumination was 5 hours on the test sites.

On to `CCN(CC)CCCCOc1ccc(N=Nc2ccc(C(=O)OC3CCC4(C)C(=CCC5C4CCC4(C)C(C(C)CCCC(C)C)CCC54)C3)cc2)cc1` (centres unmarked) [CDBA, 4-cholesterocarbonyl-4′-(N,N-diethylaminebutyloxyl)azobenzene], for which the results for the “κ (molar absorptivity)” value in data set [1] (at 442 nm) and in data set [1] (at λmax) were 3174 L/mol/cm and 24726 L/mol/cm, respectively. In addition, the “A (absorbance)” value in data set [1] (at 442 nm, CHCl3, C 0.01 mg/mL) is on record as 0.043; in data set [1] (at λmax, CHCl3, C 0.01 mg/mL) it was 0.335. Besides, in data set [1], the “λmax (λCHCl3)” value is 357 (λmax) nm. Further, the integrated area in data set [2] (290-389 (FIG. 5C)) is given as 123.707; in data set [2] (290-390 (FIG. 5B)) it was 125.025; in data set [2] (290 nm to 400 nm (FIG. 5A)) it was 137.811. In addition, the “90% value of integrated area” value in data set [2] (290 nm to 400 nm (FIG. 5A)) amounted to 124.030. Moreover, the “critical wavelength λc” value in data set [2] (wavelength where summed absorbance from 290 nm reaches 90% of the 290-400 nm total) is on record as 389-390 nm. In addition, the “protection of skin from UV irradiation” value in the data set with back of the rats (rat back, in liposome, 20 ul/cm2 (0.06 mg CDBA), 320-380 nm for 5 h, seen three days after) is “effectively protected skin from UV irradiation”. Also, in the data set with back of the rats (rat, in vivo), the “adverse effect on skin” value was “no adverse effect including allergy”.
Turning to `CC(C)CCCC(C)C1CCC2C3CC=C4CC(OC(=O)c5ccc(N=Nc6ccc(OCCCC[n+]7ccccc7)cc6)cc5)CCC4(C)C3CCC12C.[Br-]` (centres unmarked) [PyB], the entries for the “κ (molar absorptivity)” value in data set [1] (at 442 nm) and in data set [1] (at λmax) were 2227 L/mol/cm and 14464 L/mol/cm, respectively. Further, the “A (absorbance)” value is 0.081 in data set [1] (at 442 nm, CHCl3, C 0.03 mg/mL) and 0.526 in data set [1] (at λmax, CHCl3, C 0.03 mg/mL). Further, in data set [1], the “λmax (λCHCl3)” value is recorded as 356 (λmax) nm. Besides, the “time of UV light irradiation to convert trans into cis form” value in data set [3] was 6 min. In data set [3], the “time of visible light irradiation to reach the photostationary state of trans form” value stood at 8 min. The “time of natural light irradiation to reach the photostationary state of trans form” value in data set [3] was 3.0 h.
On to `COc1ccc(C(=O)CC(=O)c2ccc(C(C)(C)C)cc2)cc1` [avobenzone, reference compound], for which the “κ (molar absorptivity)” value is 10354 L/mol/cm in data set [1] (at 320 nm), 23715 L/mol/cm in data set [1] (at 360 nm), 2294 L/mol/cm in data set [1] (at 400 nm) and 23870 L/mol/cm in data set [1] (at λmax). Further, the “A (absorbance)” value in data set [1] (at 320 nm, CHCl3, C 0.01 mg/mL) was found to be 0.334; in data set [1] (at 360 nm, CHCl3, C 0.01 mg/mL), 0.765; in data set [1] (at 400 nm, CHCl3, C 0.01 mg/mL), 0.074; in data set [1] (at λmax, CHCl3, C 0.01 mg/mL), 0.770. The “λmax (λCHCl3)” value in data set [1] is given as 358 (λmax) nm.
For `CC(C)CCCC(C)C1CCC2C3CC=C4CC(OC(=O)c5ccc(N=Nc6ccc(OCCCC[n+]7ccc8ccccc8c7)cc6)cc5)CCC4(C)C3CCC12C.[Br-]` (centres unmarked) [iQB], in data set [1] (at λmax), the “κ (molar absorptivity)” value was 21176 L/mol/cm. Further, the “A (absorbance)” value in data set [1] (at λmax, CHCl3, C 0.01 mg/mL) amounted to 0.242. Further, the “λmax (λCHCl3)” value in data set [1] is on record as 357 (λmax) nm. In addition, in data set [3], the “time of UV light irradiation to convert trans into cis form” value came to 8 min, the “time of visible light irradiation to reach the photostationary state of trans form” value turned out to be 8 min and the “time of natural light irradiation to reach the photostationary state of trans form” value was found to be 3.0 h.
